Laboratory results from the supplement of paper PMC10307832.

Legend:
Assay in all cases: relative viability (nuclei count vs DMSO), 5 days (fraction); higher = more cells survive
ABC-1 = test system: ABC-1
Summary of the method: (§1)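 Medians of duplicate plates are given as relative viability. That measure is the nuclei count in treated wells divided by the count in vehicle wells. Counts were taken on 4× images of lung cancer cell lines in 1536-well plates, 5 days after pin-tool dosing the day after seeding with one drug alone or a fixed anchor-drug dose plus five library-drug doses (not always all listed) in √10 steps.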

NCI-H1975 = test system: NCI-H1975
Summary of the method: as §1

NCI-H3122 = test system: NCI-H3122
Summary of the method: as §1

CAL-12T = test system: CAL-12T
Summary of the method: as §1

NCI-H1755 = test system: NCI-H1755
Summary of the method: as §1

LXF-289 = test system: LXF-289
Summary of the method: as §1

NCI-H441 = test system: NCI-H441
Summary of the method: as §1

NCI-H2126 = test system: NCI-H2126
Summary of the method: as §1

NCI-H1666 = test system: NCI-H1666
Summary of the method: as §1

COR-L 105 = test system: COR-L 105
Summary of the method: as §1

EMC-BAC-2 = test system: EMC-BAC-2
Summary of the method: as §1

NCI-H2023 = test system: NCI-H2023
Summary of the method: as §1

ChaGo-K-1 = test system: ChaGo-K-1
Summary of the method: as §1

NCI-H2085 = test system: NCI-H2085
Summary of the method: as §1

EPLC-272H = test system: EPLC-272H
Summary of the method: as §1

UMC-11 = test system: UMC-11
Summary of the method: as §1

NCI-H322M = test system: NCI-H322M
Summary of the method: as §1

NCI-H1915 = test system: NCI-H1915
Summary of the method: as §1

HCC-78 = test system: HCC-78
Summary of the method: as §1

HOP-62 = test system: HOP-62
Summary of the method: as §1

HCC-15 = test system: HCC-15
Summary of the method: as §1

Which results are given for COc1cc2nccc(Oc3ccc(NC(=O)Nc4cc(C)on4)c(Cl)c3)c2cc1OC [Tivozanib] + CC(C)C[C@H](NC(=O)[C@H](Cc1ccccc1)NC(=O)c1cnccn1)B(O)O [Bortezomib] (partner 0.002 µM)?
relative viability (ABC-1; first compound 0.005 µM): 0.315; relative viability (ABC-1; first compound 0.01581 µM): 0.3; relative viability (ABC-1; first compound 0.05 µM): 0.277; relative viability (ABC-1; first compound 0.1581 µM): 0.304; relative viability (ABC-1; first compound 0.5 µM): 0.288; relative viability (NCI-H1975; first compound 0.005 µM): 0.376; relative viability (NCI-H1975; first compound 0.01581 µM): 0.418; relative viability (NCI-H1975; first compound 0.05 µM): 0.361; relative viability (NCI-H1975; first compound 0.1581 µM): 0.363; relative viability (NCI-H1975; first compound 0.5 µM): 0.257; relative viability (NCI-H3122; first compound 0.005 µM): 0.99; relative viability (NCI-H3122; first compound 0.01581 µM): 1.02; relative viability (NCI-H3122; first compound 0.05 µM): 1.08; relative viability (NCI-H3122; first compound 0.1581 µM): 1.12; relative viability (NCI-H3122; first compound 0.5 µM): 1.04; relative viability (CAL-12T; first compound 0.005 µM): 0.86; relative viability (CAL-12T; first compound 0.01581 µM): 0.967; relative viability (CAL-12T; first compound 0.05 µM): 1.14; relative viability (CAL-12T; first compound 0.5 µM): 1.03; relative viability (NCI-H1755; first compound 0.005 µM): 0.911; relative viability (NCI-H1755; first compound 0.01581 µM): 0.935; relative viability (NCI-H1755; first compound 0.05 µM): 1.01; relative viability (NCI-H1755; first compound 0.1581 µM): 0.577; relative viability (NCI-H1755; first compound 0.5 µM): 0.86; relative viability (LXF-289; first compound 0.005 µM): 0.952; relative viability (LXF-289; first compound 0.01581 µM): 0.956; relative viability (LXF-289; first compound 0.05 µM): 0.959; relative viability (LXF-289; first compound 0.1581 µM): 1.03; relative viability (LXF-289; first compound 0.5 µM): 0.964; relative viability (NCI-H441; first compound 0.005 µM): 0.43; relative viability (NCI-H441; first compound 0.01581 µM): 0.332; relative viability (NCI-H441; first compound 0.05 µM): 0.332; relative viability (NCI-H441; first compound 0.1581 µM): 0.453; relative viability (NCI-H441; first compound 0.5 µM): 0.34; relative viability (NCI-H2126; first compound 0.005 µM): 1.1; relative viability (NCI-H2126; first compound 0.01581 µM): 1.07; relative viability (NCI-H2126; first compound 0.05 µM): 1.14; relative viability (NCI-H2126; first compound 0.1581 µM): 0.811; relative viability (NCI-H2126; first compound 0.5 µM): 1.11; relative viability (NCI-H1666; first compound 0.005 µM): 0.746; relative viability (NCI-H1666; first compound 0.01581 µM): 0.792; relative viability (NCI-H1666; first compound 0.05 µM): 0.835; relative viability (NCI-H1666; first compound 0.1581 µM): 0.74; relative viability (NCI-H1666; first compound 0.5 µM): 0.875; relative viability (COR-L 105; first compound 0.01581 µM): 0.751; relative viability (COR-L 105; first compound 0.05 µM): 0.759; relative viability (COR-L 105; first compound 0.1581 µM): 0.702; relative viability (COR-L 105; first compound 0.5 µM): 0.681; relative viability (EMC-BAC-2; first compound 0.005 µM): 1.05; relative viability (EMC-BAC-2; first compound 0.01581 µM): 1.07; relative viability (EMC-BAC-2; first compound 0.05 µM): 1.1; relative viability (EMC-BAC-2; first compound 0.1581 µM): 0.769; relative viability (EMC-BAC-2; first compound 0.5 µM): 1.08; relative viability (NCI-H2023; first compound 0.005 µM): 0.909; relative viability (NCI-H2023; first compound 0.01581 µM): 1.07; relative viability (NCI-H2023; first compound 0.05 µM): 1; relative viability (NCI-H2023; first compound 0.1581 µM): 0.853; relative viability (NCI-H2023; first compound 0.5 µM): 0.965; relative viability (ChaGo-K-1; first compound 0.005 µM): 0.907; relative viability (ChaGo-K-1; first compound 0.01581 µM): 1.08; relative viability (ChaGo-K-1; first compound 0.05 µM): 1; relative viability (ChaGo-K-1; first compound 0.1581 µM): 0.969; relative viability (ChaGo-K-1; first compound 0.5 µM): 0.935; relative viability (NCI-H2085; first compound 0.005 µM): 1.02; relative viability (NCI-H2085; first compound 0.01581 µM): 1.1; relative viability (NCI-H2085; first compound 0.05 µM): 1.07; relative viability (NCI-H2085; first compound 0.1581 µM): 1.04; relative viability (NCI-H2085; first compound 0.5 µM): 0.846; relative viability (EPLC-272H; first compound 0.005 µM): 0.967; relative viability (EPLC-272H; first compound 0.01581 µM): 0.856; relative viability (EPLC-272H; first compound 0.05 µM): 0.949; relative viability (EPLC-272H; first compound 0.1581 µM): 0.727; relative viability (EPLC-272H; first compound 0.5 µM): 0.676; relative viability (UMC-11; first compound 0.005 µM): 0.579; relative viability (UMC-11; first compound 0.01581 µM): 0.723; relative viability (UMC-11; first compound 0.05 µM): 0.911; relative viability (UMC-11; first compound 0.5 µM): 0.668; relative viability (NCI-H322M; first compound 0.005 µM): 1.24; relative viability (NCI-H322M; first compound 0.01581 µM): 1.21; relative viability (NCI-H322M; first compound 0.05 µM): 1.18; relative viability (NCI-H322M; first compound 0.1581 µM): 1.05; relative viability (NCI-H322M; first compound 0.5 µM): 1.28; relative viability (NCI-H1915; first compound 0.005 µM): 0.945; relative viability (NCI-H1915; first compound 0.01581 µM): 0.986; relative viability (NCI-H1915; first compound 0.05 µM): 0.952; relative viability (NCI-H1915; first compound 0.1581 µM): 0.921; relative viability (NCI-H1915; first compound 0.5 µM): 0.884; relative viability (HCC-78; first compound 0.005 µM): 0.383; relative viability (HCC-78; first compound 0.01581 µM): 0.496; relative viability (HCC-78; first compound 0.05 µM): 0.57; relative viability (HCC-78; first compound 0.1581 µM): 0.549; relative viability (HCC-78; first compound 0.5 µM): 0.452; relative viability (HOP-62; first compound 0.005 µM): 0.708; relative viability (HOP-62; first compound 0.01581 µM): 0.659; relative viability (HOP-62; first compound 0.05 µM): 0.548; relative viability (HOP-62; first compound 0.1581 µM): 0.565; relative viability (HOP-62; first compound 0.5 µM): 0.819; relative viability (HCC-15; first compound 0.005 µM): 0.98; relative viability (HCC-15; first compound 0.01581 µM): 1.04; relative viability (HCC-15; first compound 0.05 µM): 1.08; relative viability (HCC-15; first compound 0.1581 µM): 1.04; relative viability (HCC-15; first compound 0.5 µM): 1.03
